# What was measured:
# Experiment in all cases: relative viability (nuclei count vs DMSO), 5 days (fraction); higher = more cells survive
# Vorinostat + Bortezomib = compound: O=C(CCCCCCC(=O)Nc1ccccc1)NO [Vorinostat] + CC(C)C[C@H](NC(=O)[C@H](Cc1ccccc1)NC(=O)c1cnccn1)B(O)O [Bortezomib] (partner 0.002 µM)
# Summary of the method: (§1)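 Values are medians from duplicate plates. Each reflects relative viability, defined as the nuclei count of treated wells over that of vehicle wells. Lung cancer cell lines in 1536-well plates were pin-tool dosed one day after seeding with one drug alone or with a fixed anchor-drug dose plus five library-drug doses (not always all listed) in √10 steps, then fixed, stained and imaged at 4× after 5 days.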
# Vorinostat + Navitoclax = compound: O=C(CCCCCCC(=O)Nc1ccccc1)NO [Vorinostat] + CC1(C)CCC(c2ccc(Cl)cc2)=C(CN2CCN(c3ccc(C(=O)NS(=O)(=O)c4ccc(N[C@H](CCN5CCOCC5)CSc5ccccc5)c(S(=O)(=O)C(F)(F)F)c4)cc3)CC2)C1 [Navitoclax] (partner 0.5 µM)
# Summary of the method: as §1
# Vorinostat + Pictilisib = compound: O=C(CCCCCCC(=O)Nc1ccccc1)NO [Vorinostat] + CS(=O)(=O)N1CCN(Cc2cc3nc(-c4cccc5[nH]ncc45)nc(N4CCOCC4)c3s2)CC1 [Pictilisib] (partner 1 µM)
# Summary of the method: as §1
# Vorinostat + AZD7762 = compound: O=C(CCCCCCC(=O)Nc1ccccc1)NO [Vorinostat] + NC(=O)Nc1cc(-c2cccc(F)c2)sc1C(=O)N[C@H]1CCCNC1 [AZD7762] (partner 0.2 µM)
# Summary of the method: as §1
# Vorinostat + Decitabine = compound: O=C(CCCCCCC(=O)Nc1ccccc1)NO [Vorinostat] + Nc1ncn([C@H]2C[C@H](O)[C@@H](CO)O2)c(=O)n1 [Decitabine] (partner 2 µM)
# Summary of the method: as §1
Cell Line,relative viability (Vorinostat + Bortezomib; first compound 0.253 µM),relative viability (Vorinostat + Bortezomib; first compound 0.8 µM),relative viability (Vorinostat + Bortezomib; first compound 2.53 µM),relative viability (Vorinostat + Bortezomib; first compound 8 µM),relative viability (Vorinostat + Navitoclax; first compound 0.253 µM),relative viability (Vorinostat + Navitoclax; first compound 0.8 µM),relative viability (Vorinostat + Navitoclax; first compound 2.53 µM),relative viability (Vorinostat + Navitoclax; first compound 8 µM),relative viability (Vorinostat + Pictilisib; first compound 0.253 µM),relative viability (Vorinostat + Pictilisib; first compound 0.8 µM),relative viability (Vorinostat + Pictilisib; first compound 2.53 µM),relative viability (Vorinostat + Pictilisib; first compound 8 µM),relative viability (Vorinostat + AZD7762; first compound 0.253 µM),relative viability (Vorinostat + AZD7762; first compound 0.8 µM),relative viability (Vorinostat + AZD7762; first compound 2.53 µM),relative viability (Vorinostat + AZD7762; first compound 8 µM),relative viability (Vorinostat + Decitabine; first compound 0.253 µM),relative viability (Vorinostat + Decitabine; first compound 0.8 µM),relative viability (Vorinostat + Decitabine; first compound 2.53 µM),relative viability (Vorinostat + Decitabine; first compound 8 µM)
NCI-H2087,0.739,0.608,0.159,0.115,1.05,0.959,0.238,0.189,1.32,0.634,0.275,0.133,1.35,1.04,0.498,0.102,0.271,0.207,0.105,0.051
NCI-H1755,0.95,0.934,0.2,0.174,1.01,0.98,0.369,0.215,0.47,0.368,0.173,0.138,0.478,0.402,0.276,0.163,0.703,0.773,0.44,0.213
NCI-H727,0.928,0.613,0.324,0.233,0.433,0.506,0.241,0.196,0.458,0.455,0.243,0.188,0.514,0.874,0.617,0.398,0.902,0.82,0.707,0.522
EKVX,1.14,1.11,0.561,0.175,0.955,1.13,0.588,0.143,0.475,0.441,0.21,0.103,0.838,0.489,0.199,0.136,0.31,0.324,0.194,0.133
LXF-289,1.08,0.923,0.348,0.057,1.04,0.963,0.279,0.0872,0.913,0.704,0.272,0.088,1.14,1.09,0.344,0.0727,0.328,0.37,0.229,0.0489
HCC-827,1.03,1.11,0.913,0.451,1.04,1.03,0.818,0.195,1.1,1.08,0.732,0.411,0.181,0.321,0.215,0.178,0.344,0.343,0.274,0.213
NCI-H3122,1.07,0.995,1.03,0.145,1.09,1.08,0.959,0.184,0.667,0.758,0.284,0.177,1.17,1.06,0.246,0.0864,0.45,0.582,0.269,0.117
HCC-15,1.15,0.973,0.518,0.13,0.82,0.594,0.324,0.0877,0.811,0.608,0.472,0.108,1.39,1.11,1.06,0.363,0.69,0.521,0.2,0.0924
NCI-H441,0.299,0.26,0.165,0.106,0.464,0.536,0.164,0.184,0.517,0.448,0.164,0.11,1.21,0.903,0.238,0.122,0.223,0.199,0.168,0.104
HCC-78,0.495,0.265,0.119,0.126,0.711,0.324,0.15,0.116,0.25,0.128,0.117,0.134,0.451,0.464,0.223,0.199,0.672,0.634,0.355,0.236
H3255,0.778,0.622,0.456,0.154,0.595,0.598,0.2,0.0872,0.599,0.574,0.318,0.183,0.989,0.923,0.507,0.279,0.839,0.607,0.427,0.173
NCI-H322M,1.4,1.25,0.715,0.392,1.33,1.32,0.836,0.249,0.537,0.541,0.386,0.317,0.56,0.565,0.408,0.304,0.679,1.1,0.622,0.373
NCI-H838,1.22,0.864,0.275,0.134,1.34,1.15,0.395,0.195,0.798,0.675,0.349,0.142,0.998,1,0.628,0.609,0.542,0.597,0.325,0.198
NCI-H1734,1.14,0.96,0.417,0.109,0.943,0.76,0.269,0.0823,0.512,0.49,0.299,0.13,0.306,0.292,0.162,0.0959,0.548,0.444,0.31,0.0873
NCI-H23,1.19,1.07,0.251,0.128,1.06,0.89,0.25,0.142,0.599,0.391,0.181,0.161,0.174,0.13,0.0979,0.0915,0.299,0.241,0.139,0.155
NCI-H596,0.942,0.693,0.663,0.258,0.943,0.942,0.279,0.145,0.355,0.357,0.316,0.277,1.13,0.732,0.543,0.384,1.07,0.902,0.68,0.36

Cell Line,relative viability (Vorinostat + Bortezomib; first compound 0.253 µM),relative viability (Vorinostat + Bortezomib; first compound 0.8 µM),relative viability (Vorinostat + Bortezomib; first compound 2.53 µM),relative viability (Vorinostat + Bortezomib; first compound 8 µM),relative viability (Vorinostat + Navitoclax; first compound 0.253 µM),relative viability (Vorinostat + Navitoclax; first compound 0.8 µM),relative viability (Vorinostat + Navitoclax; first compound 2.53 µM),relative viability (Vorinostat + Navitoclax; first compound 8 µM),relative viability (Vorinostat + Pictilisib; first compound 0.253 µM),relative viability (Vorinostat + Pictilisib; first compound 0.8 µM),relative viability (Vorinostat + Pictilisib; first compound 2.53 µM),relative viability (Vorinostat + Pictilisib; first compound 8 µM),relative viability (Vorinostat + AZD7762; first compound 0.253 µM),relative viability (Vorinostat + AZD7762; first compound 0.8 µM),relative viability (Vorinostat + AZD7762; first compound 2.53 µM),relative viability (Vorinostat + AZD7762; first compound 8 µM),relative viability (Vorinostat + Decitabine; first compound 0.253 µM),relative viability (Vorinostat + Decitabine; first compound 0.8 µM),relative viability (Vorinostat + Decitabine; first compound 2.53 µM),relative viability (Vorinostat + Decitabine; first compound 8 µM)
A-427,0.991,1.04,0.723,0.21,1.06,0.906,0.812,0.171,0.65,0.595,0.586,0.153,0.67,0.459,0.239,0.156,0.551,0.557,0.434,0.166
NCI-H460,1.12,0.783,0.0198,0.0125,1.26,0.913,0.0765,0.0108,0.37,0.279,0.208,0.0481,0.348,0.446,0.0499,0.0349,0.526,0.377,0.0496,0.0202
HCC-44,0.886,0.883,0.514,0.109,0.986,0.967,0.542,0.137,0.603,0.411,0.308,0.0904,1.01,1.02,0.879,0.526,1.03,0.896,0.737,0.413
NCI-H2085,0.942,0.841,0.566,0.265,1.18,1.02,0.643,0.269,0.53,0.462,0.378,0.303,0.962,0.898,0.518,0.207,0.569,0.554,0.379,0.281
NCI-H2405,1.06,1.01,0.952,0.206,1.13,0.771,0.0779,0.0557,0.478,0.542,0.153,0.0468,0.904,0.742,0.262,0.11,0.794,0.741,0.478,0.121
BEN,0.941,0.479,0.201,0.0496,0.0469,0.0584,0.0602,0.0509,0.659,0.332,0.132,0.0393,0.645,0.661,0.439,0.125,0.838,0.55,0.236,0.143
LCLC-97TM1,0.724,0.413,0.121,0.0563,,0.298,0.289,0.0998,,0.151,0.168,0.0934,0.129,0.256,0.205,0.0628,0.236,0.264,0.129,0.0801
NCI-H1651,0.934,0.992,0.807,0.1,1.12,0.732,0.0917,0.0643,0.659,0.433,0.0763,0.0536,0.308,0.45,0.22,0.0691,0.58,0.477,0.202,0.0686
NCI-H1915,1.01,0.951,0.54,0.112,0.792,0.762,0.479,0.0857,1.17,0.751,0.426,0.0969,0.692,0.673,0.377,0.102,0.278,0.254,0.174,0.106
LU99A,1.09,0.863,0.298,0.158,0.653,0.553,0.172,0.0974,0.264,0.278,0.154,0.141,0.279,0.198,0.15,0.0946,0.949,0.702,0.389,0.156
NCI-H1792,1.01,0.902,0.637,0.0799,0.763,0.601,0.392,0.0388,0.283,0.179,0.0803,0.0579,0.568,0.29,0.0683,0.0252,0.414,0.413,0.163,0.0341
NCI-H1666,0.798,0.461,0.251,0.189,0.845,0.652,0.322,0.235,0.363,0.283,0.206,0.128,0.778,0.826,0.461,0.322,0.703,0.654,0.548,0.329
NCI-H2126,1.13,1.13,0.943,0.371,0.834,0.756,0.489,0.211,0.495,0.42,0.334,0.221,0.999,0.989,0.774,0.208,0.58,0.533,0.332,0.19
PC-14,0.913,0.847,0.102,0.073,1.16,0.985,0.198,0.091,0.959,0.438,0.0673,0.0418,0.33,0.288,0.106,0.0453,0.227,0.19,0.0705,0.06
NCI-H2347,0.971,0.843,0.561,0.199,0.933,0.714,0.238,0.16,0.696,0.377,0.199,0.211,0.595,0.696,0.456,0.226,0.644,0.62,0.508,0.24
NCI-H1975,0.438,0.198,0.0889,0.081,1.23,0.839,0.308,0.146,0.321,0.242,0.0978,0.118,0.791,0.641,0.272,0.197,0.435,0.441,0.165,0.113

# — the supplement of paper PMC10307832
